Laboratory results as given in patent publication US20090029995A1, “HETERO BIARYL DERIVATIVES AS MATRIX METALLOPROTEINASE INHIBITORS” (WARNER-LAMBERT COMPANY, priority 2002, published 2009).

Tests used:
MMP-13 catalytic domain = target: T1, MMP-13 catalytic domain (Homo sapiens, UniProt P45452); test: MMP-13 catalytic domain inhibition (thiopeptolide substrate hydrolysis); type: biochemical; details: read-out: MMP-13CD IC50
T1 construct: use the catalytic domain of the MMP-13 enzyme, namely matrix metalloproteinase-13 catalytic domain (“MMP-13CD”)
Source text: The assays measure the amount by which a test compound reduces the hydrolysis of a thiopeptolide substrate catalyzed by a matrix metalloproteinase enzyme. […] One such assay is described below in Biological Method 1.
Some of the particular methods described below use the catalytic domain of the MMP-13 enzyme, namely matrix metalloproteinase-13 catalytic domain (“MMP-13CD”), rather than the corresponding full-length enzyme, MMP-13.
Thiopeptolide substrates show virtually no decomposition or hydrolysis at or below neutral pH in the absence of a matrix metalloproteinase enzyme. A typical thiopeptolide substrate commonly utilized for assays is Ac-Pro-Leu-Gly-thioester-Leu-Leu-Gly-OEt. […] Assays are carried out with and without matrix metalloproteinase inhibitor compounds, and the amount of hydrolysis is compared for a determination of inhibitory activity of the test compounds.

MMP-3 catalytic domain = MMP-3 catalytic domain (Homo sapiens, UniProt P08254); test: MMP-3 catalytic domain inhibition (thiopeptolide substrate hydrolysis, MES buffer pH 6.0); type: biochemical; details: read-out: MMP-3CD IC50
Source text: (§1) Certain compounds of Formula I have been assayed with MMP-1 full-length, MMP-3 catalytic domain, MMP-7 full-length, MMP-8 full-length, MMP-9 full-length, MMP-12 catalytic domain, MMP-14 catalytic domain, and MMP-17 catalytic domain.
(§2) The assays measure the amount by which a test compound reduces the hydrolysis of a thiopeptolide substrate catalyzed by a matrix metalloproteinase enzyme. Such assays are described in detail by Ye et al., in Biochemistry, 1992; 31(45): 11231-11235, which is incorporated herein by reference. One such assay is described below in Biological Method 1.
(§3) Thiopeptolide substrates show virtually no decomposition or hydrolysis at or below neutral pH in the absence of a matrix metalloproteinase enzyme. A typical thiopeptolide substrate commonly utilized for assays is Ac-Pro-Leu-Gly-thioester-Leu-Leu-Gly-OEt. A 100 μL assay mixture will contain 50 mM of N-2-hydroxyethylpiperazine-N′-2-ethanesulfonic acid buffer (“HEPES,” pH 7.0), 10 mM CaCl2, 100 μM thiopeptolide substrate, and 1 mM 5,5′-dithio-bis-(2-nitro-benzoic acid) (DTNB). The thiopeptolide substrate concentration may be varied, for example from 10 to 800 μM to obtain Km and Kcat values. The change in absorbance at 405 nm is monitored on a Thermo Max microplate reader (molecular Devices, Menlo Park, Calif.) at room temperature (22° C.). The calculation of the amount of hydrolysis of the thiopeptolide substrate is based on E412=13600 M^−1 cm^−1 for the DTNB-derived product 3-carboxy-4-nitrothiophenoxide. Assays are carried out with and without matrix metalloproteinase inhibitor compounds, and the amount of hydrolysis is compared for a determination of inhibitory activity of the test compounds.
(§4) Test compounds were evaluated at various concentrations in order to determine their respective IC50 values, the micromolar concentration of compound required to cause a 50% inhibition of catalytic activity of the respective enzyme.
It should be appreciated that the assay buffer used with MMP-3CD was 50 mM N-morpholinoethane sulfonate (“MES”) at pH 6.0 rather than the HEPES buffer at pH 7.0 described above. […]
(§5) Some representative compounds of Formula I have been evaluated for their ability to inhibit MMP-13. Inhibitor activity versus other MMPs with the compounds may be determined using, for example, MMP-1FL, which refers to full length interstitial collagenase; MMP-2FL, which refers to full length Gelatinase A; MMP-3CD, which refers to the catalytic domain of stromelysin; MMP-7FL, which refers to full length matrilysin; MMP-9FL, which refers to full length Gelatinase B; MMP-13CD, which refers to the catalytic domain of collagenase 3; and MMP-14CD, which refers to the catalytic domain of MMP-14. […]

MMP-8 full-length = target: T2, MMP-8 full-length (Homo sapiens, UniProt P22894); test: MMP-8 full-length inhibition (thiopeptolide substrate hydrolysis); type: biochemical; details: read-out: MMP-8FL IC50
T2 construct: MMP-7 full-length, MMP-8 full-length, MMP-9 full-length
Source text: as §1, §2, §3, §4

MMP-9 full-length = MMP-9 full-length (Homo sapiens, UniProt P14780); test: MMP-9 full-length inhibition (thiopeptolide substrate hydrolysis); type: biochemical; details: read-out: MMP-9FL IC50
Source text: as §1, §2, §3, §4
(§6) The test described above for the inhibition of MMP-13 may also be adapted and used to determine the ability of the compounds of Formula I to inhibit the matrix metalloproteases MMP-1, MMP-2, MMP-3, MMP-7, MMP-9, MMP-12 and MMP-14.
as §5

MMP-12 catalytic domain = target: T3, MMP-12 catalytic domain (Homo sapiens, UniProt P39900); test: MMP-12 catalytic domain inhibition (thiopeptolide substrate hydrolysis); type: biochemical; details: read-out: MMP-12CD IC50
T3 construct: MMP-12 catalytic domain, MMP-14 catalytic domain, and MMP-17 catalytic domain
Source text: as §1, §2
Thiopeptolide substrates show virtually no decomposition or hydrolysis at or below neutral pH in the absence of a matrix metalloproteinase enzyme. A typical thiopeptolide substrate commonly utilized for assays is Ac-Pro-Leu-Gly-thioester-Leu-Leu-Gly-OEt. A 100 μL assay mixture will contain 50 mM of N-2-hydroxyethylpiperazine-N′-2-ethanesulfonic acid buffer (“HEPES,” pH 7.0), 10 mM CaCl2, 100 μM thiopeptolide substrate, and 1 mM 5,5′-dithio-bis-(2-nitro-benzoic acid) (DTNB). The thiopeptolide substrate concentration may be varied, for example from 10 to 800 μM to obtain Km and Kcat values. The change in absorbance at 405 nm is monitored on a Thermo Max microplate reader (molecular Devices, Menlo Park, Calif.) at room temperature (22° C.). […]

MMP-14 catalytic domain = MMP-14 catalytic domain (Homo sapiens, UniProt P50281); test: MMP-14 catalytic domain inhibition (thiopeptolide substrate hydrolysis); type: biochemical; details: read-out: MMP-14CD IC50
Source text: as §1, §2, §3, §4, §6, §5

MMP-17 catalytic domain = target: T4, MMP-17 catalytic domain (Homo sapiens, UniProt Q9ULZ9); test: MMP-17 catalytic domain inhibition (thiopeptolide substrate hydrolysis); type: biochemical; details: read-out: MMP-17CD IC50
T4 construct: MMP-12 catalytic domain, MMP-14 catalytic domain, and MMP-17 catalytic domain
T4 sequence (Q9ULZ9 126-295 limits assumed): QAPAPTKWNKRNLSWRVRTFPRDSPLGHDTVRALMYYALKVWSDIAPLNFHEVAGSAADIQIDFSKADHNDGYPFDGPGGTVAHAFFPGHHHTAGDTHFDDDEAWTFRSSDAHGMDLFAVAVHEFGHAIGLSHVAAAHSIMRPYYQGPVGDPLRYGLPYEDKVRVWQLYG
Source text: as §1, §2, §3, §4

MMP-1 full-length = target: T5, MMP-1 full-length (Homo sapiens, UniProt P03956); test: MMP-1 full-length inhibition (thiopeptolide substrate hydrolysis); type: biochemical; details: read-out: MMP-1FL IC50
T5 sequence (P03956 100-469): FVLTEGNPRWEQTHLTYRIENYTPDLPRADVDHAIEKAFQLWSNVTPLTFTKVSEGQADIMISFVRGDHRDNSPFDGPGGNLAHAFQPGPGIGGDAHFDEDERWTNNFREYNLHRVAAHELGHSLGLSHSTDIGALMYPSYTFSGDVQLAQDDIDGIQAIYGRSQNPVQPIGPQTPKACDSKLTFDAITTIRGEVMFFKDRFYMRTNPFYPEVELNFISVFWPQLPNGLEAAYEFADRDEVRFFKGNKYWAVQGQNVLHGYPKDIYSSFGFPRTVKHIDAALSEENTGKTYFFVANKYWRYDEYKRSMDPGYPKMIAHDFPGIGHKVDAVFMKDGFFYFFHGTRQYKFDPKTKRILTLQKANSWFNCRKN
Source text: as §1, §2
(§7) Thiopeptolide substrates show virtually no decomposition or hydrolysis at or below neutral pH in the absence of a matrix metalloproteinase enzyme. A typical thiopeptolide substrate commonly utilized for assays is Ac-Pro-Leu-Gly-thioester-Leu-Leu-Gly-OEt. A 100 μL assay mixture will contain 50 mM of N-2-hydroxyethylpiperazine-N′-2-ethanesulfonic acid buffer (“HEPES,” pH 7.0), 10 mM CaCl2, 100 μM thiopeptolide substrate, and 1 mM 5,5′-dithio-bis-(2-nitro-benzoic acid) (DTNB). The thiopeptolide substrate concentration may be varied, for example from 10 to 800 μM to obtain Km and Kcat values. The change in absorbance at 405 nm is monitored on a Thermo Max microplate reader (molecular Devices, Menlo Park, Calif.) at room temperature (22° C.). The calculation of the amount of hydrolysis of the thiopeptolide substrate is based on E412=13600 M^−1 cm^−1 for the DTNB-derived product 3-carboxy-4-nitrothiophenoxide. […]
as §5

MMP-7 full-length = target: T6, MMP-7 full-length (Homo sapiens, UniProt P09237); test: MMP-7 full-length inhibition (thiopeptolide substrate hydrolysis); type: biochemical
T6 sequence (P09237 95-267): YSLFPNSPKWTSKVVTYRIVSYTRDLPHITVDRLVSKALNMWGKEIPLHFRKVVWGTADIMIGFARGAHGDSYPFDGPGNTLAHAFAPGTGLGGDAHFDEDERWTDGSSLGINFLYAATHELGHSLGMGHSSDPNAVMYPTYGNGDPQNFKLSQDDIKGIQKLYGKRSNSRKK
Source text: as §1, §2, §7, §5

Chain of MMP-9 full-length (P14780 94-707): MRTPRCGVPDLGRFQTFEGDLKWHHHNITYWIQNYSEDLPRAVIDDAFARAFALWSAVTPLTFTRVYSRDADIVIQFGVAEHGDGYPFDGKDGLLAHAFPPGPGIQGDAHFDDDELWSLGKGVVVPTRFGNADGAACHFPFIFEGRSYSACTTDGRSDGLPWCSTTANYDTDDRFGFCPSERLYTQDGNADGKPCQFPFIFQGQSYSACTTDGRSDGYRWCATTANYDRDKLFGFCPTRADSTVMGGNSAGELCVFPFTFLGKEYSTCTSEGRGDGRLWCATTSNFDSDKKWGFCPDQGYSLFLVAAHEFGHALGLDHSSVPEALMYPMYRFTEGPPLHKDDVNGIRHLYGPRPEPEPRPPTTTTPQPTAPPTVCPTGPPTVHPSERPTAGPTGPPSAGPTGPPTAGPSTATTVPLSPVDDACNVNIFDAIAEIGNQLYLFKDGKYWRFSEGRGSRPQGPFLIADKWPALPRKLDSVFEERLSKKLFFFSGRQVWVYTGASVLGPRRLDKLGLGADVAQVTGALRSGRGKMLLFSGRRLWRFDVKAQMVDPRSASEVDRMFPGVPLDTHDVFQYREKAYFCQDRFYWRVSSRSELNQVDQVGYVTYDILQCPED
Chain of MMP-3 catalytic domain (P08254 100-272 limits assumed): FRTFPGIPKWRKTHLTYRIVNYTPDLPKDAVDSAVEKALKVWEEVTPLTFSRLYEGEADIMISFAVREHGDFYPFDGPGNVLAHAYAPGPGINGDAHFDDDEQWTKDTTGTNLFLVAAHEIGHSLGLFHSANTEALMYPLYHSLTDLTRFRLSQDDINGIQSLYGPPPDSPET
T2 sequence (P22894 101-467): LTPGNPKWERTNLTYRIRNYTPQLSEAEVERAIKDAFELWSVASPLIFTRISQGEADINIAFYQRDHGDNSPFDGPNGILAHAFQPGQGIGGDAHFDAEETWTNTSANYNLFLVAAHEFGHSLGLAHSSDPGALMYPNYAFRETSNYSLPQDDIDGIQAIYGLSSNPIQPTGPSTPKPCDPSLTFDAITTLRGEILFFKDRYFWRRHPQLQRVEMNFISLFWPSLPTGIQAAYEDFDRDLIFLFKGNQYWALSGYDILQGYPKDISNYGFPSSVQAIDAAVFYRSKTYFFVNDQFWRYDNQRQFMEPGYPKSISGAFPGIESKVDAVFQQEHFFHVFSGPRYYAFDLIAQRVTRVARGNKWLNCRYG
T3 sequence (P39900 106-263 limits assumed): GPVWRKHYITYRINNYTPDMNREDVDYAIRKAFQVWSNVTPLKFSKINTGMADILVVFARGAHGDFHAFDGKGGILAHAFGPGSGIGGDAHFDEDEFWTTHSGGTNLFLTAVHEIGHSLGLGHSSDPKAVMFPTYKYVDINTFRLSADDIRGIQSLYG

| IC50 (MMP-13 catalytic domain) | IC50 (MMP-3 catalytic domain) | IC50 (MMP-8 full-length) | IC50 (MMP-9 full-length) | IC50 (MMP-12 catalytic domain) | IC50 (MMP-14 catalytic domain) | IC50 (MMP-17 catalytic domain) | melting point | IC50 (MMP-1 full-length) | IC50 (MMP-7 full-length) | Compound |
| --- | --- | --- | --- | --- | --- | --- | --- | --- | --- | --- |
| 0.0015 µM | 4.7 µM | > 100 µM | > 100 µM | 18 µM | > 30 µM | 30 µM | 210 to 212 °C | – | – | O=C(O)c1ccc(Cn2nnc(-c3cccc(C#CCc4ccc(F)cc4)c3)n2)cc1 [Example C4, 4-(5-{3-[3-(4-Fluoro-phenyl)-prop-1-ynyl]-phenyl}-tetrazol-2-ylmethyl)-benzoic acid] |
| 0.0027 µM | 4.3 µM | > 100 µM | > 30 µM | – | > 30 µM | > 100 µM | – | > 100 µM | > 30 µM | COc1ccc(CC#Cc2cncc(-c3nnn(Cc4ccc(C(=O)O)cc4)n3)c2)cc1 [Example H4, 4-(5-{5-[3-(4-Methoxy-phenyl)-prop-1-ynyl]-pyridin-3-yl}-tetrazol-2-ylmethyl)-benzoic acid] |
| 0.0017 µM | 100 µM | > 100 µM | > 100 µM | – | > 100 µM | – | 193 to 194 °C | > 100 µM | > 100 µM | O=C(O)c1ccc(Cn2nnc(-c3ccnc(C(=O)NCc4ccc(F)cc4)c3)n2)cc1 [Example F12, 4-{5-[2-(4-Fluoro-benzylcarbamoyl)-pyridin-4-yl]-tetrazol-2-ylmethyl}-benzoic acid] |
| 0.0011 µM | 100 µM | > 100 µM | > 30 µM | – | 27 µM | > 100 µM | – | > 30 µM | 7.9 µM | O=C(O)c1ccc(Cc2nnc(-c3cccc(C#CCc4ccc(F)cc4)c3)s2)cc1 [Example C2, 4-(5-{3-[3-(4-Fluoro-phenyl)-prop-1-ynyl]-phenyl}-[1,3,4]thiadiazol-2-ylmethyl)-benzoic acid] |
| 11 µM | – | – | – | – | – | – | 173 to 174 °C | – | – | CS(=O)(=O)c1ccc(Cn2nnc(-c3ccnc(C(=O)NCc4ccc(-n5cccn5)cc4)c3)n2)cc1 [Example F11, 4-[2-(4-Methanesulfonyl-benzyl)-2H-tetrazol-5-yl]-pyridine-2-carboxylic acid 4-pyrazol-1-yl-benzylamide] |
| 0.0045 µM | – | – | – | – | – | – | 151 to 152 °C | – | – | O=S(=O)(O)c1ccc(Cn2nnc(-c3cccc(C#CCc4ccc(F)cc4)c3)n2)cc1 [Example D1, 4-(5-{3-[3-(4-Fluoro-phenyl)-prop-1-ynyl]-phenyl}-tetrazol-2-ylmethyl)-benzenesulfonic acid] |
| 0.15 µM | – | – | – | – | – | – | 158 to 159 °C | – | – | NS(=O)(=O)c1ccc(Cn2nnc(-c3cccc(C#CCc4ccccc4)c3)n2)cc1 [Example D4, 4-{5-[3-(3-Phenyl-prop-1-ynyl)-phenyl]-tetrazol-2-ylmethyl}-benzenesulfonamide] |
